# Test results as given in US20210382058A1, “PATIENT SELECTION FOR TREATMENT OF MYC POSITIVE CANCERS WITH INDENOISOQUINOLINES” (Purdue Research Foundation, priority 2020, published 2021).
# Where two headings read alike, the source gives them in different places.
# Assays:
# [1] = tested on: MYC protein expression in MCF-7 breast cancer cells; test: Western blotting of MYC protein level in MCF-7 cells; format: cell-based, human; conditions: Homo sapiens, MCF7; western blotting, MCF-7 cells, 0.5, 1, 2, and 4 μM, 24 hours; read-out: MYC Inhibition
# Procedure, shortened: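 Immunoblotting with ECL detection quantified MYC, with GAPDH (1:2000) as reference and anti-MYC at 1:1000.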
# human topoisomerase I = biological target: T1, human topoisomerase I (Homo sapiens, UniProt P11387); conditions: relative topoisomerase I inhibition levels, previously determined, six levels (0 - 5, +++++ = 5); cited from earlier work
# T1 sequence (P11387 1-765): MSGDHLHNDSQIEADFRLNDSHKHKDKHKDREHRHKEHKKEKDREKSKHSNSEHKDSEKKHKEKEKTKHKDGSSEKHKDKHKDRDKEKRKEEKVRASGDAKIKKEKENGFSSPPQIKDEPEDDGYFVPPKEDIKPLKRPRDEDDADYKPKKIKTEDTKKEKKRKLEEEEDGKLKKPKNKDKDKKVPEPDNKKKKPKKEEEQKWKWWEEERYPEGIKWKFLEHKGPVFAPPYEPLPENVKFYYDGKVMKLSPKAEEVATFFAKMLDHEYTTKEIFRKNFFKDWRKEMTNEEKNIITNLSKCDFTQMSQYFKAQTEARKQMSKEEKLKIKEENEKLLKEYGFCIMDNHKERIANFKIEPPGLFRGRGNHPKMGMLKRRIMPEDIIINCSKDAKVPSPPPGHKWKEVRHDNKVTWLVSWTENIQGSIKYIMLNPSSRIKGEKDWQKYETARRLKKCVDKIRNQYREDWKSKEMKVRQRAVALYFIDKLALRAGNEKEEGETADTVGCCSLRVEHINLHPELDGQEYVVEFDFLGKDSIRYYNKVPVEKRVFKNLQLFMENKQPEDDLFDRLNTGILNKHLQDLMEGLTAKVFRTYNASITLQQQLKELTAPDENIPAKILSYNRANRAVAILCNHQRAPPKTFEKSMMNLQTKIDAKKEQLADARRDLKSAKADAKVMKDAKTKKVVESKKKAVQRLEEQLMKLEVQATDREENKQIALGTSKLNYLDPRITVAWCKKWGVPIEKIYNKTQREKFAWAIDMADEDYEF
# NCI-60 cancer cell lines = test: NCI-60 cancer cell line drug screen (GI50, MGM); format: cell-based, human; conditions: Homo sapiens; for GI50: read-out: Antiproliferative Activities [GI50 (μM)]
# Experimental: Cancer cells were incubated with the test compounds at five concentrations ranging from 100 μM to 10 nM for 48 h. […] The approximate average of GI50 values across the entire panel of NCI-60 cancer cell lines for each compound was recorded as the MGM value.
smiles,measurement,setting,value
CNCCCn1c2c(c3ccc(Cl)cc3c1=O)C(=O)c1cc(OC)cnc1-2 [Compound 3],minimal effective concentration,[1],0.5 to 1 µM
same,Top1 Inhibiton,human topoisomerase I,"++ (medium inhibition, ++, MYC expression inhibited at 2.0 μM, or no clear dose-dependent MYC inhibition)"
same,GI50,"NCI-60 cancer cell lines; 786-0, Renal Cancer, 786-0",0.32 µM
same,GI50,"NCI-60 cancer cell lines; A498, Renal Cancer, A498",0.53 µM
same,GI50,"NCI-60 cancer cell lines; A549, Non-Small Cell Lung Cancer, A549/ATCC",0.45 µM
same,GI50,"NCI-60 cancer cell lines; ACHN, Renal Cancer, ACHN",0.22 µM
same,GI50,"NCI-60 cancer cell lines; BT-549, Breast Cancer, BT-549",0.65 µM
same,GI50,"NCI-60 cancer cell lines; CAKI-1, Renal Cancer, CAKI-1",0.06 µM
same,GI50,"NCI-60 cancer cell lines; CCRF-CEM, Leukemia, CCRF-CEM",0.06 µM
same,GI50,"NCI-60 cancer cell lines; COLO 205, Colon Cancer, COLO 205",0.5 µM
same,GI50,"NCI-60 cancer cell lines; DU-145, Prostate Cancer, DU-145",0.33 µM
same,GI50,"NCI-60 cancer cell lines; EKVX, Non-Small Cell Lung Cancer, EKVX",1.2 µM
same,GI50,"NCI-60 cancer cell lines; HCC 2998, Colon Cancer, HCC-2998",1.41 µM
same,GI50,"NCI-60 cancer cell lines; HCT-15, Colon Cancer, HCT-15",1.11 µM
same,GI50,"NCI-60 cancer cell lines; HCT-116, Colon Cancer, HCT-116",0.55 µM
same,GI50,"NCI-60 cancer cell lines; HL-60, Leukemia, HL-60(TB)",0.6 µM
same,GI50,"NCI-60 cancer cell lines; HOP-62, Non-Small Cell Lung Cancer, HOP-62",0.22 µM
same,GI50,"NCI-60 cancer cell lines; HOP-92, Non-Small Cell Lung Cancer, HOP-92",1.19 µM
same,GI50,"NCI-60 cancer cell lines; HT-29, Colon Cancer, HT29",1.08 µM
same,GI50,"NCI-60 cancer cell lines; Hs-578T, Breast Cancer, HS 578T",1.84 µM
same,GI50,"NCI-60 cancer cell lines; IGROV-1, Ovarian Cancer, IGROV1",1.14 µM
same,GI50,"NCI-60 cancer cell lines; K562, Leukemia, K-562",1.14 µM
same,GI50,"NCI-60 cancer cell lines; KM12, Colon Cancer, KM12",1.1 µM
same,GI50,"NCI-60 cancer cell lines; LOX IMVI, Melanoma, LOX IMVI",0.16 µM
same,GI50,"NCI-60 cancer cell lines; Leukemia, SR",0.14 µM
same,GI50,"NCI-60 cancer cell lines; MCF7, Breast Cancer, MCF7",0.05 µM
same,GI50,"NCI-60 cancer cell lines; MDA-MB-231, Breast Cancer, MDA-MB-231/ATCC",1.62 µM
same,GI50,"NCI-60 cancer cell lines; MDA-MB-435, Melanoma, MDA-MB-435",1.07 µM
same,GI50,"NCI-60 cancer cell lines; MDA-MB-468, Breast Cancer, MDA-MB-468",1.28 µM
same,GI50,"NCI-60 cancer cell lines; MOLT-4, Leukemia, MOLT-4",0.04 µM
same,GI50,"NCI-60 cancer cell lines; Malme-3M, Melanoma, MALME-3M",1.48 µM
same,GI50,"NCI-60 cancer cell lines; Melanoma, M14",0.57 µM
same,GI50,"NCI-60 cancer cell lines; NCI-H23, Non-Small Cell Lung Cancer, NCI-H23",0.92 µM
same,GI50,"NCI-60 cancer cell lines; NCI-H226, Non-Small Cell Lung Cancer, NCI-H226",1.35 µM
same,GI50,"NCI-60 cancer cell lines; NCI-H322M, Non-Small Cell Lung Cancer, NCI-H322M",1.28 µM
same,GI50,"NCI-60 cancer cell lines; NCI-H460, Non-Small Cell Lung Cancer, NCI-H460",0.05 µM
same,GI50,"NCI-60 cancer cell lines; NCI-H522, Non-Small Cell Lung Cancer, NCI-H522",0.37 µM
same,GI50,"NCI-60 cancer cell lines; OVCAR-3, Ovarian Cancer, OVCAR-3",1.41 µM
same,GI50,"NCI-60 cancer cell lines; OVCAR-4, Ovarian Cancer, OVCAR-4",1.27 µM
same,GI50,"NCI-60 cancer cell lines; OVCAR-5, Ovarian Cancer, OVCAR-5",1.69 µM
same,GI50,"NCI-60 cancer cell lines; OVCAR-8, Ovarian Cancer, OVCAR-8",1.18 µM
same,GI50,"NCI-60 cancer cell lines; Ovarian Cancer, NCl/ADR-RES",0.54 µM
same,GI50,"NCI-60 cancer cell lines; Prostate Cancer, PC-3",1.02 µM
same,GI50,"NCI-60 cancer cell lines; RPMI-8226, Leukemia, RPMI-8226",1.47 µM
same,GI50,"NCI-60 cancer cell lines; RXF 393, Renal Cancer, RXF 393",1.3 µM
same,GI50,"NCI-60 cancer cell lines; Renal Cancer, U0-31",1.08 µM
same,GI50,"NCI-60 cancer cell lines; SF-268, CNS Cancer, SF-268",0.4 µM
same,GI50,"NCI-60 cancer cell lines; SF-295, CNS Cancer, SF-295",0.13 µM
same,GI50,"NCI-60 cancer cell lines; SF-539, CNS Cancer, SF-539",0.73 µM
same,GI50,"NCI-60 cancer cell lines; SK-MEL-2, Melanoma, SK-MEL-2",13.2 µM
same,GI50,"NCI-60 cancer cell lines; SK-MEL-5, Melanoma, SK-MEL-5",1.12 µM
same,GI50,"NCI-60 cancer cell lines; SK-MEL-28, Melanoma, SK-MEL-28",1.62 µM
same,GI50,"NCI-60 cancer cell lines; SK-OV-3, Ovarian Cancer, SK-OV-3",0.66 µM
same,GI50,"NCI-60 cancer cell lines; SN12C, Renal Cancer, SN12C",1.18 µM
same,GI50,"NCI-60 cancer cell lines; SNB-19, CNS Cancer, SNB-19",0.61 µM
same,GI50,"NCI-60 cancer cell lines; SNB-75, CNS Cancer, SNB-75",0.26 µM
same,GI50,"NCI-60 cancer cell lines; SW-620, Colon Cancer, SW-620",0.08 µM
same,GI50,"NCI-60 cancer cell lines; T47D, Breast Cancer, T-47D",1.12 µM
same,GI50,"NCI-60 cancer cell lines; U-251, CNS Cancer, U251",0.3 µM
same,GI50,"NCI-60 cancer cell lines; UACC-62, Melanoma, UACC-62",0.57 µM
same,GI50,"NCI-60 cancer cell lines; UACC-257, Melanoma, UACC-257",2.24 µM
same,mean GI50 across NCI-60 panel (MGM),NCI-60 cancer cell lines; average of GI50 values across the entire panel of NCI-60 cancer cell lines,0.6 µM
